Source: patent US20110263507A1 (priority 2007, published 2011)
Where “and” joins values, the source holds several entries; their conditions need not be identical. Identical values can stand only once. Like-named read-outs stand apart in the source and are kept apart here. Where a SMILES comes first, the peptide text is derived from it. Where no end group is shown, it is not given here. [ ]: non-standard residue; d: D form. pGlu = O=C1CC[C@@H](C(=O)O)N1; Tle = CC(C)(C)[C@H](N)C(=O)O; dOrn = NCCC[C@@H](N)C(=O)O; Orn = NCCC[C@H](N)C(=O)O; Dab = NCC[C@H](N)C(=O)O

Experiments:
[1] = molecular target: T1, hNTS2 (Homo sapiens, UniProt O95665); assay: Radioligand competition binding with [3H]NT, membranes of CHO-K1 cells expressing hNTS2; conditions: for hNTS2 Selectivity: hNTS2 over hNTS1; for higher affinity at hNTS2 than the corresponding JMV peptide at mNTS2: NT33 vs JMV 510, NT51 vs JMV 509
T1 construct: expressed in transfected cells; host or cells: CHO-K1

[2] = molecular target: T2, hNTS1 (Homo sapiens, UniProt P30989); assay: Radioligand competition binding with [3H]NT, membranes of CHO-K1 cells expressing hNTS1; conditions: for hNTS1 Selectivity: hNTS1 over hNTS2
T2 construct: expressed in transfected cells; host or cells: CHO-K1
Procedure: CHO-K1 cells that had been stably transfected separately with the hNTS1 or hNTS2 genes were cultured in 150 mm (500 cm^2) Petri plates with 35 ml of Dulbecco's modified Eagle's medium containing 100 μM minimal essential medium nonessential amino acids (Life Technologies, Inc.) supplemented with 5% (v/v) FetalClone II bovine serum product (Hyclone Labs, Logan, Utah). […] The cellular pellet (in Tris-HCl buffer) was stored at […] until the radioligand binding was performed.
For use in binding assays, crude membrane preparations were prepared by centrifugation of the cellular pellet at 35,600×g for 10 min. The supernatant was decanted and discarded, and the cellular pellet was resuspended in 1 ml of Tris-HCl buffer followed by homogenization with a Brinkmann Polytron at setting 5.5 for 15 s. Centrifugation was repeated as above, the supernatant was decanted and discarded, and the cellular pellet was resuspended in 1 ml of Tris-HCl buffer followed by homogenization. Centrifugation was repeated a third time, the supernatant was discarded, and the final cellular pellet was suspended in 0.5-2.5 ml of Tris-HCl buffer. Protein concentration of the membrane preparation was estimated by the method of Lowry et al. using bovine serum albumin as a standard.
Incubation was at 20° C. for 40 min. The assay was routinely terminated by addition of ice-cold 0.9% NaCl (5×1.5 ml), followed by rapid filtration through a GF/B filter strip that had been pretreated with 0.2% or 2% polyethyleneimine. Details of binding assays have been described previously. […] Data were analyzed using the LIGAND program.

[3] = Table 2, read-out: hNTS2 Geometric Mean ∀ SEM (equilibrium dissociation constant Kd)
[4] = text b54, read-out: Kd at hNTS2
[5] = read-out: hNTS1 Geometric Mean ∀ SEM (equilibrium dissociation constant Kd)

T1 sequence (O95665 whole entry): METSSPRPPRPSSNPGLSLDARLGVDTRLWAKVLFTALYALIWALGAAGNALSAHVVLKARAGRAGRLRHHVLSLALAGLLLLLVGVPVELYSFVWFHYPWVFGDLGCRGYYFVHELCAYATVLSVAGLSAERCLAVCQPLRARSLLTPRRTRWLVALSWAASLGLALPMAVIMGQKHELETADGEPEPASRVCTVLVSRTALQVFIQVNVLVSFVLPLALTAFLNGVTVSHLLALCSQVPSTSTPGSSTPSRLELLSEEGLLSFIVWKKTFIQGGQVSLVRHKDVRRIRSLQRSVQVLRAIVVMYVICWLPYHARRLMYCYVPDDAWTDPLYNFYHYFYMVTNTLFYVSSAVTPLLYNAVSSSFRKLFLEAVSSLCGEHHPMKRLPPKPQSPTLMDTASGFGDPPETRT
T2 sequence (P30989 whole entry): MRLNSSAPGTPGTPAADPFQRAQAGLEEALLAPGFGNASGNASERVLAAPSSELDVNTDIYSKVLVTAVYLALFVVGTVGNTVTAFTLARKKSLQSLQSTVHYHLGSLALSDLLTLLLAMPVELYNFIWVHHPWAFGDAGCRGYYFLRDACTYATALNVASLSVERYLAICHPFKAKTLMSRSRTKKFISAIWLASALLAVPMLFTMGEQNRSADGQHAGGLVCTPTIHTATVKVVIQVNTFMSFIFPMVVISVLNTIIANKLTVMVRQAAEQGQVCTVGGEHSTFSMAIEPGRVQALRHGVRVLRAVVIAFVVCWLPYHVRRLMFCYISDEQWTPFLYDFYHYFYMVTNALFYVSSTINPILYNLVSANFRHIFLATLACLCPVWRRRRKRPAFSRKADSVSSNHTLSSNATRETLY

Kd [1, 3]	hNTS2 Selectivity ([1]; Table 2)	hNTS1 Selectivity ([2]; Table 2)	Kd [2, 5]	Compound	further results
3.9 ± 0.2 nM	0.8	1.3	3 ± 0.3 nM	CC[C@H](C)[C@H](NC(=O)[C@H](Cc1ccc(O)cc1)NC(=O)[C@@H]1CCCN1C(=O)[C@H](CCCN)NC(=O)[C@@H](N)CCCN)C(=O)N[C@@H](CC(C)C)C(=O)O [NT25, [L-Orn^8,L-Orn^9]NT(8-13)]	–
4.6 ± 0.5 nM	0.2	4.6	–	CC[C@H](C)[C@H](NC(=O)[C@H](Cc1ccc(O)cc1)NC(=O)[C@@H]1CCCN1C(=O)[C@H](CCCNC(=N)N)NC(=O)[C@H](N)CCCCN)C(=O)N[C@@H](CC(C)C)C(=O)O [NT02, [D-Lys^8]NT(8-13)] (H-[dK]RPYIL-OH; N-terminus and C-terminus assumed)	–
14 nM	–	–	–	CC[C@H](C)[C@H](NC(=O)[C@@H]1Cc2ccccc2CN1C(=O)[C@@H]1CCCN1C(=O)[C@H](CCCNC(=N)N)NC(=O)[C@@H](N)CCCNC(=N)N)C(=O)N[C@@H](CC(C)C)C(=O)O [NT47, [L-TIC^11]NT(8-13)]	–
–	0.2	4.4	1500 ± 100 nM	CC[C@H](C)[C@H](NC(=O)[C@H](Cc1ccc(O)cc1)NC(=O)[C@@H]1CCCN1C(=O)[C@@H](CCCN)NC(=O)[C@H](CCCNC(=N)N)NC(=O)[C@@H]1CCCN1C(=O)[C@H](CCCCN)NC(=O)[C@H](CC(N)=O)NC(=O)[C@H](CCC(=O)O)NC(=O)[C@H](Cc1ccc(O)cc1)NC(=O)[C@H](CC(C)C)NC(=O)[C@@H]1CCC(=O)N1)C(=O)N[C@@H](CC(C)C)C(=O)O [NT61, [D-Orn^9]NT(1-13)] ([pGlu]LYENKPR[dOrn]PYIL-OH; C-terminus assumed)	Kd [1, 4]: 6600 nM
255 nM	–	–	–	CC[C@H](C)[C@H](NC(=O)[C@H]1Cc2ccccc2CN1C(=O)[C@@H]1CCCN1C(=O)[C@H](CCCNC(=N)N)NC(=O)[C@@H](N)CCCNC(=N)N)C(=O)N[C@@H](CC(C)C)C(=O)O [NT48, [D-TIC^11]NT(8-13)]	–
6.5 ± 0.3 nM	0.2	5.6	1.2 ± 0.1 nM	CC[C@H](C)[C@H](NC(=O)[C@H](Cc1ccc(O)cc1)NC(=O)[C@@H]1CCCN1C(=O)[C@H](CCCNC(=N)N)NC(=O)[C@@H](N)CCN)C(=O)N[C@@H](CC(C)C)C(=O)O [NT29, [DAB^8]NT(8-13)] (H-[Dab]RPYIL-OH; N-terminus and C-terminus assumed)	–
1190 ± 40 nM	0.3	4.0	300 ± 50 nM	CC[C@H](C)[C@H](NC(=O)[C@H](Cc1ccc(O)cc1)NC(=O)[C@@H]1CCCN1C(=O)[C@@H](N)CCCN)C(=O)N[C@@H](CC(C)C)C(=O)O [NT34, [L-Orn^9]NT(9-13)] (H-[Orn]PYIL-OH; N-terminus and C-terminus assumed)	–
1082 ± 6 nM	0.3	3.0	360 ± 40 nM	CC[C@H](C)[C@H](NC(=O)[C@H](Cc1ccc(O)cc1)NC(=O)[C@@H]1CCCN1C(=O)[C@@H](CCCN)NC(=O)[C@@H](N)CCCN)C(=O)N[C@@H](CC(C)C)C(=O)O [NT26, [L-Orn^8,D-Orn^9]NT(8-13)]	–
2.2 ± 0.1 nM	0.2	5.2	0.41 ± 0.03 nM	CC[C@H](C)[C@H](NC(=O)[C@H](Cc1ccc(O)cc1)NC(=O)[C@@H]1CCCN1C(=O)[C@H](CCCNC(=N)N)NC(=O)[C@@H](N)CCCN)C(=O)N[C@@H](CC(C)C)C(=O)O [NT21, [L-Orn^8]NT(8-13)] (H-[Orn]RPYIL-OH; N-terminus and C-terminus assumed)	–
18 ± 1 nM	–	–	–	CC[C@H](C)[C@H](NC(=O)[C@H](Cc1ccc2ccccc2c1)NC(=O)[C@@H]1CCCN1C(=O)[C@H](CCCNC(=N)N)NC(=O)[C@@H](N)CCCNC(=N)N)C(=O)N[C@@H](CC(C)C)C(=O)O [NT33, [L-3,2-Nal^11]NT(8-13)]	higher affinity at hNTS2 than the corresponding JMV peptide at mNTS2 [1]: 12 fold
1.28 ± 0.05 nM	–	–	–	CC[C@H](C)[C@H](NC(=O)[C@H](Cc1cccc2ccccc12)NC(=O)[C@@H]1CCCN1C(=O)[C@H](CCCNC(=N)N)NC(=O)[C@@H](N)CCCNC(=N)N)C(=O)N[C@@H](CC(C)C)C(=O)O [NT49, [L-3,1-Nal^11]NT(8-13)]	–

The remaining lines, values behind:

Compound	Kd [1, 3]	hNTS2 Selectivity ([1]; Table 2)	hNTS1 Selectivity ([2]; Table 2)	Kd [2, 5]	further results
CC[C@H](C)[C@H](NC(=O)[C@@H](Cc1ccc(O)cc1)NC(=O)[C@@H]1CCCN1C(=O)[C@@H](CCCN)NC(=O)[C@@H](N)CCCNC(=N)N)C(=O)N[C@@H](CC(C)C)C(=O)O [NT37, [D-Orn^9,D-Tyr^11]NT(8-13)] (H-R[dOrn]P[dY]IL-OH; N-terminus and C-terminus assumed)	1800 ± 100 nM	–	–	–	Kd at hNTS2 in words ([1]; text b54): micromolar Kd's; binding / Kd at hNTS1 in words ([2]; text b54): no detectable binding
CC[C@H](C)[C@H](NC(=O)[C@H](Cc1ccc(O)cc1)NC(=O)[C@@H]1CCCN1C(=O)[C@H](N)CCCN)C(=O)N[C@@H](CC(C)C)C(=O)O [NT35, [D-Orn^9]NT(9-13)] (H-[dOrn]PYIL-OH; N-terminus and C-terminus assumed)	–	0.1	19.1	–	Kd [1, 4]: 10000 nM; Kd ([1]; text, read-out: Kd at hNTS2): 10500 nM; Kd ([2]; text, read-out: Kd at hNTS1): 550 nM
[DAB^9,L-neo-Trp^11]NT(9-13) [NT75]	169 ± 8 nM	0.4	2.3	–	Kd ([2]; Table 2, n.d. = no detectable binding at 1 μM, †/* values published before by the same laboratory, read-out: hNTS1 Geometric Mean ∀ SEM (equilibrium dissociation constant Kd)): 73 ± 5 nM
CC[C@H](C)[C@H](NC(=O)[C@H](Cc1ccc(O)cc1)NC(=O)[C@@H]1CCCN1C(=O)[C@H](CCCCN)NC(=O)[C@H](N)CCCNC(=N)N)C(=O)N[C@@H](CC(C)C)C(=O)O [NT15, [D-Arg^8,L-Lys^9]NT(8-13)] (H-[dR]KPYIL-OH; N-terminus and C-terminus assumed)	–	0.2	4.0	–	Kd [1]: 18 ± 2 nM; Kd [2]: 3.5 ± 0.5 nM
CC(C)C[C@H](NC(=O)[C@@H](NC(=O)[C@H](Cc1c[nH]c2ccccc12)NC(=O)[C@@H]1CCCN1C(=O)[C@@H](CCCN)NC(=O)[C@@H](N)CCCNC(=N)N)C(C)(C)C)C(=O)O [NT77T, [D-Orn^9,L-Trp^11,tert-Leu^12]NT(8-13)] (H-R[dOrn]PW[Tle]L-OH; N-terminus and C-terminus assumed)	320 ± 20 nM	4.8	0.2	1530 ± 80 nM	–
RKPYIL [NT18, [L-Lys^9]NT(8-13)]	–	1.3	0.8	–	Kd [1]: 1.18 ± 0.09 nM; Kd [2]: 1.49 ± 0.09 nM
CC[C@H](C)[C@H](NC(=O)[C@H](Cc1ccc(O)cc1)NC(=O)[C@@H]1CCCN1C(=O)[C@@H](CCCCN)NC(=O)[C@@H](N)CCCNC(=N)N)C(=O)N[C@@H](CC(C)C)C(=O)O [NT03, [D-Lys^9]NT(8-13)] (H-R[dK]PYIL-OH; N-terminus and C-terminus assumed)	–	2.5	0.4	–	Kd [1]: 280 ± 30 nM; Kd [2]: 690 ± 30 nM
RRPAIL [NT08, [Ala^11]NT(8-13)]	58 ± 5 nM	–	–	–	Kd [2]: 2500 ± 200 nM
CC[C@H](C)[C@H](NC(=O)[C@@H](Cc1ccc2ccccc2c1)NC(=O)[C@@H]1CCCN1C(=O)[C@H](CCCNC(=N)N)NC(=O)[C@@H](N)CCCNC(=N)N)C(=O)N[C@@H](CC(C)C)C(=O)O [NT51, [D-3,2-Nal^11]NT(8-13)]	–	–	–	–	decrease in affinity at NTS2 on changing from L- to D-3,2-Nal ([1]; NT33 compared to NT51): < 2 fold; higher affinity at hNTS2 than the corresponding JMV peptide at mNTS2 [1]: 28 fold and ~30 fold; Kd ([1]; text, read-out: Kd at hNTS2): 32.9 nM
CC[C@H](C)[C@H](NC(=O)[C@H](Cc1ccc(O)cc1)NC(=O)[C@@H]1CCCN1C(=O)[C@H](CCCN)NC(=O)[C@@H](N)CCCNC(=N)N)C(=O)N[C@@H](CC(C)C)C(=O)O [NT23, [L-Orn^9]NT(8-13)] (H-R[Orn]PYIL-OH; N-terminus and C-terminus assumed)	1.5 ± 0.1 nM	0.6	1.6	0.94 ± 0.06 nM	–
CC(C)C[C@H](NC(=O)[C@@H](NC(=O)[C@H](Cc1c[nH]c2ccccc12)NC(=O)[C@@H]1CCCN1C(=O)[C@H](CCCNC(=N)N)NC(=O)[C@H](N)CCCCN)C(C)(C)C)C(=O)O [NT66T, [D-Lys^8,L-Trp^11,tert-Leu^12]NT(8-13)] (H-[dK]RPW[Tle]L-OH; N-terminus and C-terminus assumed)	18.1 ± 0.7 nM	7.7	0.1	140 ± 19 nM	–
RRGYIL [NT07, [Gly^10]NT(8-13)]	–	1.4	0.7	–	Kd [1]: 970 ± 40 nM; Kd [2]: 1380 ± 50 nM
CC[C@H](C)[C@H](NC(=O)[C@H](Cc1ccc(O)cc1)NC(=O)[C@@H]1CCCN1C(=O)[C@H](CCCCN)NC(=O)[C@@H](N)CCCCN)C(=O)N[C@@H](CC(C)C)C(=O)O [NT19, [L-Lys^8,L-Lys^9]NT(8-13)]	–	–	–	–	Kd [1]: 2.4 ± 0.3 nM
CC[C@H](C)[C@H](NC(=O)[C@H](Cc1ccc(O)cc1)NC(=O)[C@@H]1CCCN1C(=O)[C@@H](CCCCN)NC(=O)[C@H](N)CCCCN)C(=O)N[C@@H](CC(C)C)C(=O)O [NT20, [D-Lys^8,D-Lys^9]NT(8-13)]	–	–	–	–	Kd [1]: 730 ± 60 nM
